Conditions: Liquid, Closed cell (Static) method

FC(F)(F)C(F)(F)F [hexafluoroethane]
Conditions | vapor or sublimation pressure [kPa]
243.33 K | 769
245.32 K | 816
249.31 K | 928
253.29 K | 1048
257.31 K | 1183
261.29 K | 1328
265.28 K | 1489
269.27 K | 1659
273.27 K | 1847
277.24 K | 2050
281.23 K | 2270
283.23 K | 2387
285.23 K | 2509
287.22 K | 2636
289.22 K | 2769
290.23 K | 2839
290.72 K | 2873
291.22 K | 2909
291.72 K | 2946
292.22 K | 2982

Reference: the NIST ThermoML archive (doi:10.1016/j.fluid.2007.06.012)
